Experimental data published in US20150218514A1, “PROMOTER OF DIFFERENTIATION FROM HEPATIC PROGENITOR CELL INTO HEPATIC CELL, AND USE THEREOF” (NATIONAL CANCER CENTER, priority 2012, published 2015).

Experiments:
Dnmt-1 = Dnmt-1 expression level after differentiation induction of mouse hepatic progenitor cells (real-time PCR); format: cell-based; settings: 100 nM siRNA; day 6 of culture; compared to control siRNA (siCtrl)
Experimental: RNA was quantified by the real-time PCR method using 7300 real-time PCR system (Applied Biosystems) and TaqMan MicroRNA Assays (Applied Biosystems). The miRNA expression was standardized at 6NU6B level. For quantification of messenger RNA, total RNA sample was treated with DNase (TURBO DNA-free kit: Ambion Inc.), and cDNA was synthesized from 1 μg of total RNA by using reverse transcriptase (SuperScript III Reverse Transcriptase: Ambion Inc.). For quantification, SYBR Green (PlatinumSYBR Green quantitative PCR SuperMix UDG: Invitrogen Corporation) was used. The reaction for real-time PCR was performed at 95° C., 2 min, 40 cycles (95° C. for 15 sec, 60° C. for 30 sec). The cDNA expression level was standardized by GAPDH. […]
Mouse hepatic progenitor cells were plated at 4×10^4 cells/cm^2 in a 35 mm cell culture dish coated with type I collagen, […], after confluence (after day 4 of culture), the cells were cultured in the medium for hepatic progenitor cells free of epidermal growth factor (EGF) and fetal bovine serum. […] Total RNA was extracted, and Dnmt-1 was quantified by the real-time PCR method. […]

[1] = tested on: Mouse hepatic progenitor cells; experiment: Expression level of hepatocyte markers after differentiation induction of mouse hepatic progenitor cells (real-time PCR); format: cell-based; settings: for expression level of Cyp17a1 / expression level of G6pc / expression level of Tat / expression level of albumin: 100 nM siRNA introduced on day 2, day 6 of culture, compared to control siRNA (siCtrl)
Experimental: To a basal medium for hepatocyte were added 5 μg/mL of insulin (Sigma-Aldrich Corporation), 25 ng/mL of epidermal growth factor (EGF) (Sigma-Aldrich Corporation), 25 ng/mL of hepatocyte growth factor (HGF) (Peprotech), 12.5 ng/mL of oncostatin M (Sigma-Aldrich Corporation), 5×10^−7M hydrocortisone 21-hemisuccinate sodium salt (Sigma-Aldrich Corporation) and 10^−7 M dexamethasone (Sigma-Aldrich Corporation) to prepare the medium.
The hepatic parenchymal cells were diluted with HEPES buffer added with 2% fetal bovine serum to prepare a 10^7 cells/100 μL cell suspension, which was transferred into a 5 mL round-bottom tube. A mouse FcR blocking antibody in EasySep Mouse Biotin Positive Selection Kit ([…] Technologies Inc) was added at 1 μL per 10^7 cells, and the mixture was admixed by tapping the tube. Biotin-labeled anti-E-cadherin antibody (eBioscience) was added at 2-4 μL per 10^7 cells, and the mixture was left standing at room temperature for 15 min while stirring the tube every 2-3 minutes. Biotin Selection Cocktail in EasySep Mouse Biotin Positive Selection Kit was added at 10 μL per 10^7 cells, and the mixture was left standing at room temperature for 15 min with occasional stirring. Magnetic particles in EasySep Mouse Biotin Positive Selection Kit were added at 5 μL per 10^7 cells, and the mixture was stirred and left standing at room temperature for 10 min. To the cell suspension was added a medium for cell isolation, and the volume was adjusted to 2.5 mL. The mixture was suspended with a 2 mL plastic pipette, and the tube was placed in an exclusive magnet ([…] Technologies Inc.) and left standing at room temperature for 10 min. The exclusive magnet containing the tube was reversed for 3 sec, and a non-hepatic progenitor cell fraction was removed (purification operation: first time). The tube was taken out from the exclusive magnet, 2.5 mL of the medium for cell isolation was added, and a purification operation was performed again (purification operation: second time). Furthermore, 2.5 mL of the medium for cell isolation was added, and a purification operation was performed for the third time (purification operation: third time). The cells remaining in the tube are the hepatic progenitor cells.
Total RNA was extracted from cultured cells, liver cancer cell lines, and mouse and human normal hepatic tissues by using miRNeasy Mini Kit (QUIAGEN). The total RNA was quantified by NanoDrop 1000 spectrophotometer (Thermo Fisher Scientific K.K.). The hepatic tissues recovered from mouse were placed in ice-cooled phosphate buffer and disrupted before extraction of RNA. Red blood cells were lysed in Red Blood Cell Lysis Buffer (Sigma-Aldrich Corporation).
RNA was quantified by the real-time PCR method using 7300 real-time PCR system (Applied Biosystems) and TaqMan MicroRNA Assays (Applied Biosystems). The miRNA expression was standardized at 6NU6B level. For quantification of messenger RNA, total RNA sample was treated with DNase (TURBO DNA-free kit: Ambion Inc.), and cDNA was synthesized from 1 μg of total RNA by using reverse transcriptase (SuperScript III Reverse Transcriptase: Ambion Inc.). For quantification, SYBR Green (PlatinumSYBR Green quantitative PCR SuperMix UDG: Invitrogen Corporation) was used. The reaction for real-time PCR was performed at 95° C., 2 min, 40 cycles (95° C. for 15 sec, 60° C. for 30 sec). The cDNA expression level was standardized by GAPDH.

HepG2 cells [2] = experiment: PAS staining of HepG2 cells (glycogen storage capacity); format: cell-based, human; settings: 2.5 μM; culture for 14 days; compared to control without inhibitor
Experimental: (§1) HepG2 cells (ATCC) were plated on a 35 mm cell culture dish at 7×10^5 cells, and cultured in DMEM (Invitrogen Corporation) added with 100 IU/mL penicillin-100 μg/mL streptomycin solution (Invitrogen Corporation), 10% fetal bovine serum (Thermo Fisher Scientific K.K.), and a substance that inhibits DNA methylation (5-aza-2′-deoxycytidine: 5-aza (decitabine): 2.5 μM). The medium was exchanged every day.

[3] = tested on: Hepatoblastoma HepG2 cells; experiment: Morphology of HepG2 cells cultured with substance that inhibits DNA methylation caused by Dnmt-1; format: cell-based, human; settings: 2.5 μM; day 14 of culture
Experimental: as §1, with “Hepatoblastoma HepG2” for “HepG2”, “(American Type Culture Collection: ATCC)” for “(ATCC)”

[4] = non-patent document 12; cited from earlier work
HepG2 cells [5] = settings: HepG2 cells treated for 2 days; non-patent document 8; cited from earlier work

effect of promoting differentiation into a hepatocyte ([1]; among the substances that inhibit DNA methylation) | Molecule | expression of Dnmt-1 (Dnmt-1) | expression level of Cyp17a1 [1] | expression level of G6pc [1] | expression level of Tat [1] | expression level of albumin [1] | expression of albumin ([1]; RG108 20 or 100 μM in medium from day 2, day 7 of culture, compared to control) | glycogen storage capacity (PAS staining) (HepG2 cells [2]) | cell morphology [3] | apoptosis [4] | cytotoxicity [4] | mRNA level of CYP gene (HepG2 cells [5])
 | siDnmt-1b: double stranded RNA, sense strand SEQ ID NO: 11 and antisense strand SEQ ID NO: 12; siRNA that suppresses expression of Dnmt-1 (sense CAACGGAUCCUAUCACACUTT; antisense AGUGUGAUAGGAUCCGUUGTA; chemistry not given here) | suppressed | high expression levels | high expression levels | high expression levels | high expression levels |  |  |  |  |  | 
high effect | O=C(O)C(Cc1c[nH]c2ccccc12)N1C(=O)c2ccccc2C1=O (centres unmarked) [RG108] |  |  |  |  |  | high level |  |  |  |  | 
 | siDnmt-1a: double stranded RNA, sense strand SEQ ID NO: 9 and antisense strand SEQ ID NO: 10; siRNA that suppresses expression of Dnmt-1 (sense GGUAGAGAGUUACGACGAATT; antisense UUCGUCGUAACUCUCUACCTG; chemistry not given here) | suppressed | high expression levels | high expression levels | high expression levels | high expression levels |  |  |  |  |  | 
 | Nc1ncn([C@H]2C[C@H](O)[C@@H](CO)O2)c(=O)n1 [5-aza-2′-deoxycytidine] |  |  |  |  |  |  | high glycogen storage capacity | morphology specific to mature hepatocyte (multiple nuclei, clear cell boundary) | induce apoptosis | high cytotoxicity | increases
